No end group written: not given here.
Experiments:
Assay type in all cases: cell-based
[1] = test system: ERK1/2; assay: Western immunoblot for phosphorylated ERK1/2 in human chondrocytes; conditions: at 15 min; inhibitors added before peptide
Experimental: To detect activation of MAP kinases (ERK1/2, p38 MAPK, and JNK1/2), first-passaged chondrocytes plated onto 10-cm culture dishes were incubated with CB12-II (SP), USP, TNF-α, native human type II collagen, human fibronectin, and antibodies to α2β1 and α5β1 for 5-60 min. In some experiments, chondrocytes were precultured with U0126 (inhibitor of phosphorylation of MEK1/2, up-stream kinase molecule of ERK1/2) at 1 μM for 1 h, SB203580 (inhibitor of phosphorylation of p38 MAPK) at 1 μM for 1 h, Herbimycin A (tyrosine kinase inhibitor) at 1 μg/ml for overnight, Wortmannin (PI3 kinase inhibitor) at 100 nM for 1 h, and Cytochalasin D (focal adhesion inhibitor) at 3 μM for 30 or 60 min before adding peptides.
After a variable but designated incubation time, chondrocytes were washed twice with ice cold PBS and lysed in RIPA buffer (10 mM Tris/HCl, pH 7.4, 0.1% SDS, 1% NP-40, 0.1% sodium deoxycholate, 150 mM NaCl, 1 mM EDTA) containing freshly added proteinase and phosphatase inhibitors (1 mM PMSF, 10 μg/ml leupeptin, 1 μg/ml aprotinin, 1 mM Na3VO4, 1 mM NaF). Cell lysate was centrifuged and supernatant was collected. Protein concentration was determined using Bradford's method. Equal amounts of protein were separated on 10% SDS-polyacrylamide gels under reducing conditions and were electrotransferred to a nitrocellulose membrane (Bio-Rad). To block nonspecific binding, the membranes were incubated in PBS containing 5% non-fat milk overnight at 4° C. The membranes were then probed with rabbit antibodies against phosphorylated ERK1/2, p38, and JNK1/2 (New England BioLabs). Antibodies were diluted 1:1000 in PBS containing 0.5% non-fat milk and reacted with the membrane for 1 h at room temperature. Blots were washed with PBS containing 0.1% Tween-20 three times, and incubated for 1 h at room temperature with horseradish peroxidase (HRP)-conjugated goat anti-rabbit IgG (New England BioLabs) diluted 1:2000 with PBS-0.1% Tween 20 for ECL system (Amersham). Then, the membranes were washed with PBS-Tween, and the membranes were detected with the addition of a 1:1 dilution of the ECL detection reagents (Amersham) 1 and 2 for 1 min. The solution was removed, and the membranes were wrapped in plastic wrap and exposed to film for various amounts of time.
First-passaged confluent human chondrocytes were treated with CB12-II (SP) (10 μM), USP (10 μM), anti-α2β1and α5β1 antibodies, anti-integrin α2β1 blocking antibody, and IL-1β or TNF-α. Cell lysates were immunoblotted using antibody that detects phosphorylated p-ERK1I/2 or p-MEK. In some experiments, U0126 at 10 μM, a specific inhibitor of an upstream molecule, MEK1/2, that activates ERK1/2, and SB203580 at 10 μM, that inhibits p38 MAPK activity, were added to the culture 1 h before peptides, antibodies, and cytokines. Herbimycin A, cytochalasin D, and wortmannin were also used as inhibitors.

[2] = test system: bovine articular cartilage explant; assay: Proteoglycan (GAG) content and release in bovine explant culture; conditions: subpeptides at 1 and 10 μM
Experimental: The cartilages were prepared as previously described (Dahlberg, L. et al. (2000) supra. In brief, the cartilage samples were washed three times with basal culture medium containing Dulbecco's modified Eagle's medium (DMEM; Gibco BRL, Life Technologies, Grand Island, N.Y.) with 20 mM HEAPS buffer (pH 7.4) (Gibco BRL), 45 mM NaHCO3, 100 units/ml penicillin, 100 μg/ml streptomycin and 150 μg/ml gentamycin sulphate (Medium A). Full-depth cartilage slices from a single area, around 20 mm×20 mm were cut vertical to the articular surface and then into cubes of approximately 2 mm×2 mm (5-7 cubes were randomly obtained and wet weights about 50-70 mg/well determined). The cartilage was assigned to 48 well plate (ca 40 mg/well) and kept in Medium A supplemented with 50 μg/ml ascorbic acid, 0.1 mg/bovine serum albumin, 50 μg/ml insulin, 5.0 μg/ml and 5.0 μg/ml sodium DMEM alone at 37° C. in 95% air/5% CO2. The cartilage was precultured for 2 days and medium was changed at day 0. Thereafter medium (as described in pellet cultures) was replaced every four days. Various CNBr fragments and/or synthetic peptides were freshly added from day 0 at each medium change. Thereafter, cartilage explants and conditioned media were harvested and stored at −20° C. In order to show the specificity of the peptide fragments of one embodiment on degradation of type II collagen as compared with proteoglycan, primarily aggrecan, sulphated glycosaminoglycan (GAG) content was determined in both the α-chymotrypsin and proteinase K digests for total proteoglycan (predominantly aggrecan) content in cell pellets, cartilage explants and also in conditioned media. Measurement of release of proteoglycan into media was tested using dimethylene blue dye binding as previously described (Dahlberg, L. et al. (2000) supra).

[3] = test system: bovine articular cartilage explant; assay: Collagenase-cleaved type II collagen (COL2-3/4C) in bovine articular cartilage explant culture; conditions: 1 and 10 μM, time- and dose-dependent
Experimental: (§1) The cartilages were prepared as previously described (Dahlberg, L. et al. (2000) supra. In brief, the cartilage samples were washed three times with basal culture medium containing Dulbecco's modified Eagle's medium (DMEM; Gibco BRL, Life Technologies, Grand Island, N.Y.) with 20 mM HEAPS buffer (pH 7.4) (Gibco BRL), 45 mM NaHCO3, 100 units/ml penicillin, 100 μg/ml streptomycin and 150 μg/ml gentamycin sulphate (Medium A). Full-depth cartilage slices from a single area, around 20 mm×20 mm were cut vertical to the articular surface and then into cubes of approximately 2 mm×2 mm (5-7 cubes were randomly obtained and wet weights about 50-70 mg/well determined).
(§2) The cartilage was assigned to 48 well plate (ca 40 mg/well) and kept in Medium A supplemented with 50 μg/ml ascorbic acid, 0.1 mg/bovine serum albumin, 50 μg/ml insulin, 5.0 μg/ml and 5.0 μg/ml sodium DMEM alone at 37° C. in 95% air/5% CO2. The cartilage was precultured for 2 days and medium was changed at day 0. Thereafter medium (as described in pellet cultures) was replaced every four days. Various CNBr fragments and/or synthetic peptides were freshly added from day 0 at each medium change. Thereafter, cartilage explants and conditioned media were harvested and stored at −20° C.
(§3) The cell pellets and cartilage explant cultured for various times were digested for the extraction of collagenase-generated neoepitope COL2-3/4Cshort (Billinghurst, R. C. et al., (1997) supra) and denatured type II collagen epitope COL2-3/4m and total type II collagen (Hollander, A. P. et al. (1994a) supra), as previously described: Briefly, the harvested pellets were incubated overnight with 1.0 mg/ml α-chymotrypsin at 37° C. to cleave and solubilize denatured collagen leaving the above neoepitope and epitope intact. After inhibition of α-chymotrypsin activity with N-tosyl-L-phenelalanine-chloromethyl ketone (Sigma), the samples were centrifuged and the supernatants were removed and boiled for 10 min. The COL2-3/4Cshort epitope (hereafter referred to as COL2-3/4Cshort) generated by cleavage of type II collagen by collagenase (Billinghurst, R. C. et al. (1997) supra) and intrachain epitope (COL2-3/4m) exposed in denatured type II collagen (Hollander, A. P. et al. (1994a) supra) were measured in α-chymotrypsin extracts by immunoassay. The COL2-3/4Cshort epitope is detected in an ELISA assay using a rabbit antibody to the carboxyterminal cleavage neoepitope on the TCA piece generated by primary collagenase cleavage of type II collagen. The release of the COL2-3/4C epitope into media was also measured by immunoassay. Total contents in tissue/cells and media was recorded for COL2-3/^4Cshort epitope. The COL2-3/4m epitope was recorded in cells and tissue where it was concentrated. The remaining residues of pellets and explants were digested overnight with 1.0 mg/ml proteinase K at 56° C. to extract the remaining intact type II collagen and then boiled for 10 min to denature the enzyme. Total type II collagen content in the pellets and explant was determined from the collective amount of COL2-3/4m in both the α-chymotrypsin and proteinase K digests.

[4] = test system: normal human adult articular cartilage explants; assay: Type II collagen cleavage by collagenase (COL2-3/4C) in human articular cartilage explant culture; conditions: by day 16
Experimental: Human femoral chondylar cartilages were obtained at autopsy within 18 hours of death from adult persons with no known history of arthritis and no macroscopic signs of articular degeneration. None of the persons had diabetes or had received chemotherapy prior to autopsy. Adult bovine articular cartilage was obtained from adults/bovine steers and cows from metacarpalphalangeal joints obtained at the abbatoir immediately after slaughter. All cartilage specimens were removed immediately to the laboratory under sterile conditions.
as §1, §2, §3

[5] = test system: MMP-1; assay: ELISA for MMP-1 in conditioned medium of human chondrocytes; conditions: 48 hours; CB12-II 50 μM, TNF-α 50 ng/ml
Experimental: (§4) First-passaged normal human chondrocytes isolated by the method described above and cultured at high density (2×10^5 cells/cm^2) were trypsinized and resuspended in Medium A containing 1% FCS at a density of 10^6 cells/ml. Then, 200 μl of the cell suspension was each plated onto round-bottomed 96-well culture plate. On the next day after plating, CB12-II at 50 μM, USP at 50 μM, and TNF-α at 50 ng/ml were added to the culture media, and the culture was maintained for 24-48 hours. Conditioned media were collected and subjected to ELISA assay. The ELISA kits (BIOTRAK) for MMP-1 and MMP-13 were purchased from Amersham Pharmacia Biotech (Piscataway, N.J.). Measurement range was 6.25-100 ng/ml for MMP-1 and 0.094-3 ng/ml for MMP-13. Sensitivity for the assay was 1.7 ng/ml for MMP-1 and 0.7 ng/ml for MMP-13.
(§5) Protein levels of MMP-1 and MMP-13 were also tested by incubating isolated human chondrocytes for 48 hours in high density culture (10^6 cells/ml) with CB12-II, negative control peptide USP, or cytokine TNF-α, as discussed above. MMP-1 and MMP-13 secretion into medium from the cells was measured using ELISA (see FIGS. 9A and 9B).

[6] = test system: MMP-13; assay: ELISA for MMP-13 in conditioned medium of human chondrocytes; conditions: 48 hours; CB12-II 50 μM, TNF-α 50 ng/ml
Experimental: as §4, §5

Compound	effect of removal of hydroxylation at a single proline residue on activity of CB12-II (SP) [4]	inhibition of phosphorylation of ERK1/2 induced by CB12-II [1]	also measured
C=C1[C@@H](C)[C@H]2[C@H](Cc3ccccc3)NC(=O)[C@]23[C@H](OC(C)=O)/C=C/[C@@](C)(O)C(=O)[C@@H](C)C/C=C/[C@H]3[C@@H]1O [Cytochalasin D, reference compound]	–	inhibited	–
CO[C@H]1[C@@H](OC)C[C@H](C)[C@@H](OC)C2=CC(=O)C=C(NC(=O)/C(C)=C/C=C\[C@H](OC)[C@@H](OC(N)=O)/C(C)=C/[C@@H]1C)C2=O [Herbimycin A, reference compound]	–	inhibited	–
N#CC(=C(/N)Sc1ccccc1N)/C(C#N)=C(\N)Sc1ccccc1N [Peptide U0126, reference compound]	–	inhibited	–
C[S+]([O-])c1ccc(-c2nc(-c3ccncc3)c(-c3ccc(F)cc3)[nH]2)cc1 (stereo not shown) [SB203580, reference compound]	–	not	–
GEAGAPGVKGESGSPGQNGSPGPM (not fully specified) [CB12-IV, subpeptide of CB12; used as non-specific / negative control peptide (USP)]	–	–	proteoglycan breakdown [2]: no significant effect; induction of total collagenase cleavage of type II collagen by CB12 subpeptides [3]: less activity
GERGPP*GPQGARGFP*GTPGLP*GVK [SP18]	reduced potency	–	–
GLPGVKGHRGYPGLDGAKGEAGAPG [CB12-III, subpeptide of the CB12 peptide of type II collagen]	–	–	proteoglycan breakdown [2]: no significant effect; induction of total collagenase cleavage of type II collagen by CB12 subpeptides [3]: less activity
GPRGPPGPPGKPGDDGEAGKPGKSGERGPPG [CB12-I, subpeptide of the CB12 peptide of type II collagen]	–	–	proteoglycan breakdown [2]: no significant effect; induction of total collagenase cleavage of type II collagen by CB12 subpeptides [3]: less activity
TNF-α	–	–	MMP-1 secretion into medium versus no peptide and negative control peptide (USP) [5]: significantly higher; MMP-13 secretion into medium versus no peptide and negative control peptide (USP) [6]: significantly higher

Second part, led by results:

effect of removal of hydroxylation at a single proline residue on activity of CB12-II (SP) [4]	Compound	inhibition of phosphorylation of ERK1/2 induced by CB12-II [1]	also measured
no effect on activity	GERGPP*GPQGARGFP*GTP*GLPGVK [SP21]	–	–
reduced potency	GERGPP*GPQGARGFPGTP*GLP*GVK [SP15]	–	–
no effect on activity	GERGPPGPQGARGFP*GTP*GLP*GVK [SP6]	–	–
